Measured values: patent publication EP3594336A1, “TREATMENT OF DOWN SYNDROME” (Université de Strasbourg, priority 2018, dated 2020)

How the values were obtained:
DYRK1A = conditions: treatment with EGCG, as reported previously; cited from earlier work
[1] = system: yeast cells overexpressing Cys4; test: Drug screening in yeast: suppression of methionine auxotrophy (halo of restored growth around filter); type: cell-based, Saccharomyces cerevisiae; conditions: same plate assay; high concentrations = close to the filter
Experimental: As an example, for the drug screening, yeast cells transformed with p424-GPD and p426-GPD plasmids containing yeast CBS (CYS4) coding sequence were grown in uracil- and tryptophan-free minimal liquid medium (SD-Ura/Trp) overnight at 29°C. The following day, cells were diluted to OD600∼0.2 in fresh medium and grown for 4 hours to reach exponential phase. Then three hundred and fifty microliters of exponentially growing yeast cells overexpressing CYS4, adjusted to an OD600 of 0.5, were spread homogeneously with sterile glass beads (a mix of ∼1.5 and 3 mm diameter) on a square Petri dish (12 cm × 12cm) containing uracil-, tryptophan- and methionine-free minimal agar-based solid medium (SD-UrarTrp/Met). In addition, to get a degree of methionine auxotrophy sufficient to allow an efficient screening, the screening medium was supplemented with serine (2% (w/v)), which is one of CYS4/CBS substrates. Sterile filters (Thermo Fisher similar to those used for antibiograms) were placed on the agar surface, and 2 µl of individual compound from the various chemical libraries were applied to each filter. […]
According to the present invention, it was decided to create a yeast model in which the phenotypical consequences of CBS overexpression may be easily and conveniently monitored in order to get a potential in cellulo high throughput drug screening procedure. […]

Row | Structure (SMILES) | cognitive aspects found altered in people with DS (DYRK1A) | toxicity on CYS4-overexpressing cells [1]
1 | O=C(O[C@@H]1Cc2c(O)cc(O)cc2O[C@@H]1c1cc(O)c(O)c(O)c1)c1cc(O)c(O)c(O)c1 [epigallocatechin-3-gallate] | can restore some cognitive aspects found altered in people with DS but the gain was limited | –
2 | CCN(CC)C(=S)SSC(=S)N(CC)CC [DSF, Disulfiram] | – | toxic at high concentrations
